# Measurements published in US12630536B2, “Cyanotriazine derivative, preparation method therefor, and application thereof” (Chengdu Fanxi Biopharma Co., LTD., priority 2020, dated 2026).
# Key:
# [1] = system: TR alpha-UAS-bla HEK 293T Cells; experiment: TR cell-based agonist detection, β-lactamase reporter (LiveBLAzer FRET B/G), TR alpha
# Description: A method for testing a THR-α/β activation activity of a compound by an in-vitro cell level was as follows.
# Compounds were transferred to a 384-well plate by an ECHO liquid workstation, and each compound was diluted by 3 times with 10 gradient concentrations, which was in triplicate. 1.5×10^4 DMEM-cultured cells (TR beta-UAS-bla HEK 293T Cells) or 1.0×10^4 TR alpha-UAS-bla HEK 293T Cells were placed in the 384-well plate. HEK 293T-TR beta was incubated in an incubator for 16 hours, and HEK 293T-TR alpha was incubated in an incubator for 24 hours. A LiveBLAzer™-FRET B/G (CCF4-AM) substrate was added into the cell plate to detect expression of β-lactamase in cells, and under excitation of 409 nm, a product produced fluorescence with a wavelength of 447 nm. When the β-lactamase was not expressed, under excitation of 409 nm, fluorescence with a wavelength of 520 nm was directly produced through FRET. Combination between the compound and the protein was determined by detecting a ratio of the two kinds of fluorescence (blue/green, 460 nm/530 nm), thus calculating EC50 of the compound. […] Calculation of a factor Z (greater than 0.5) would be used for monitoring a stability of each experiment.
# [2] = system: golden hamsters fed with high-fat feedstuffs (hyperlipidemia model); experiment: In-vivo pharmacodynamic test, high-fat feed hyperlipidemia model; conditions: oral once per day, 4 weeks
# Description: Administration mode: oral administration was carried out once per day with a time interval of 24 hours for 4 consecutive weeks. During the experiment, the animals were weighed twice per week, and a remaining amount and an adding amount of the feedstuffs were recorded before each blood sampling detection for calculating a food intake of each group of animals during administration.
# The food utilization rate represents a weight gain in gram of an animal taking per 100 g of feedstuffs, so that food utilization rate=weight gain (g)/food intake (100 g)×100%.
compound,measurement,setting,value
"Cn1cnc2ccc(Oc3c(Br)cc(-n4nc(C#N)c(=O)[nH]c4=O)cc3Br)cc21 [Compound 1, 2-(3,5-dibromo-4-((1-methyl-1H-benzo[d]imidazol-6-yl)oxy)phenyl)-3,5-dioxo-2,3,4,5-tetra hydro-1,2,4-triazine-6-carbonitrile]",Emax,"[1]; Homo sapiens, HEK-293T, 24 h, TR_cell-based agonist, TR_α, read-out: Maximum activity ratio",205%
same,EC50,"[1]; Homo sapiens, Detection of TR_cell-based agonist, HEK 293T-TR alpha, 24 hours, read-out: TR_α_EC50",4.32 µM
same,Test cpd/T3 (maximum ratio),"[1]; TR_cell-based agonist, TR_α, maximum relative to T3",93.2%
same,food utilization rate (weight gain (g)/food intake (100 g)×100%),[2],reduced significantly
same,level of triglyceride in blood (TG),"[2]; 5 and 15 mg/kg, compared with the model group",significantly reduces
